Results: the CheMixHub viscosity set
Where “and” joins values, the source holds several entries; their conditions need not be identical. Equal values may be shown once. ± gives the uncertainty stated by the source.

Assay: xn = mol fraction of the nth substance listed

C1CNCCN1 + O
viscosity (293.15 K, 100 kPa, x1 = 0.02273): 1.608 ± 0.053 mPa·s
viscosity (298.15 K, 101 kPa, x1 = 0.0292): 1.877 ± 0.044 mPa·s
viscosity (303.15 K, 101 kPa, x1 = 0.00369): 0.86 ± 0.04 mPa·s
viscosity (303.15 K, 101 kPa, x1 = 0.005): 0.84 ± 0.04 mPa·s
viscosity (303.15 K, 101 kPa, x1 = 0.01): 0.93 ± 0.04 mPa·s
viscosity (303.15 K, 101 kPa, x1 = 0.0113): 0.97 ± 0.05 mPa·s
viscosity (303.15 K, 101 kPa, x1 = 0.02): 1.13 ± 0.05 mPa·s
viscosity (303.15 K, 101 kPa, x1 = 0.02358): 1.28 ± 0.06 mPa·s
viscosity (303.15 K, 101 kPa, x1 = 0.025): 1.28 ± 0.05 mPa·s
viscosity (303.15 K, 101 kPa, x1 = 0.03): 1.41 ± 0.06 mPa·s
viscosity (303.15 K, 101 kPa, x1 = 0.035): 1.57 ± 0.07 mPa·s
viscosity (303.15 K, 101 kPa, x1 = 0.04): 1.76 ± 0.07 mPa·s
viscosity (303.15 K, 101 kPa, x1 = 0.045): 1.91 ± 0.08 mPa·s
viscosity (313.15 K, 100 kPa, x1 = 0.02273): 0.9677 ± 0.032 mPa·s and 0.988 ± 0.021 mPa·s
viscosity (313.15 K, 101 kPa, x1 = 0.005): 0.67 ± 0.03 mPa·s
viscosity (313.15 K, 101 kPa, x1 = 0.01): 0.74 ± 0.03 mPa·s
viscosity (313.15 K, 101 kPa, x1 = 0.0113): 0.76 ± 0.04 mPa·s
viscosity (313.15 K, 101 kPa, x1 = 0.015): 0.81 ± 0.03 mPa·s
viscosity (313.15 K, 101 kPa, x1 = 0.02): 0.89 ± 0.04 mPa·s
viscosity (313.15 K, 101 kPa, x1 = 0.02358): 1.02 ± 0.05 mPa·s
viscosity (313.15 K, 101 kPa, x1 = 0.025): 0.99 ± 0.04 mPa·s
viscosity (313.15 K, 101 kPa, x1 = 0.0292): 1.307 ± 0.032 mPa·s
viscosity (313.15 K, 101 kPa, x1 = 0.03): 1.08 ± 0.04 mPa·s
viscosity (313.15 K, 101 kPa, x1 = 0.04): 1.33 ± 0.05 mPa·s
viscosity (313.15 K, 101 kPa, x1 = 0.045): 1.43 ± 0.06 mPa·s
viscosity (318.15 K, 101 kPa, x1 = 0.00369): 0.61 ± 0.03 mPa·s
viscosity (318.15 K, 101 kPa, x1 = 0.0113): 0.69 ± 0.04 mPa·s
viscosity (318.15 K, 101 kPa, x1 = 0.02358): 0.92 ± 0.05 mPa·s
viscosity (323.15 K, 101 kPa, x1 = 0.005): 0.51 ± 0.02 mPa·s
viscosity (323.15 K, 101 kPa, x1 = 0.01): 0.59 ± 0.03 mPa·s
viscosity (323.15 K, 101 kPa, x1 = 0.0113): 0.62 ± 0.03 mPa·s
viscosity (323.15 K, 101 kPa, x1 = 0.02): 0.71 ± 0.03 mPa·s
viscosity (323.15 K, 101 kPa, x1 = 0.02358): 0.81 ± 0.04 mPa·s
viscosity (323.15 K, 101 kPa, x1 = 0.025): 0.8 ± 0.03 mPa·s
viscosity (323.15 K, 101 kPa, x1 = 0.03): 0.86 ± 0.04 mPa·s
viscosity (323.15 K, 101 kPa, x1 = 0.035): 0.95 ± 0.04 mPa·s
viscosity (323.15 K, 101 kPa, x1 = 0.04): 1.04 ± 0.04 mPa·s
viscosity (323.15 K, 101 kPa, x1 = 0.045): 1.11 ± 0.05 mPa·s

CCOC(=O)C(=O)OCC + ClC(Cl)Cl
viscosity (303.15 K, 101 kPa, x1 = 0.0624): 0.606 ± 0.0062 mPa·s
viscosity (303.15 K, 101 kPa, x1 = 0.1302): 0.712 ± 0.0072 mPa·s
viscosity (303.15 K, 101 kPa, x1 = 0.2043): 0.825 ± 0.0082 mPa·s
viscosity (303.15 K, 101 kPa, x1 = 0.2854): 0.942 ± 0.0093 mPa·s
viscosity (303.15 K, 101 kPa, x1 = 0.3747): 1.051 ± 0.01 mPa·s
viscosity (303.15 K, 101 kPa, x1 = 0.473): 1.157 ± 0.011 mPa·s
viscosity (303.15 K, 101 kPa, x1 = 0.5831): 1.28 ± 0.013 mPa·s
viscosity (303.15 K, 101 kPa, x1 = 0.7057): 1.399 ± 0.014 mPa·s
viscosity (303.15 K, 101 kPa, x1 = 0.8436): 1.539 ± 0.015 mPa·s
